{"source": "patent US20230365519A1", "about": "“CARBOXYLIC DIARYLTHIAZEPINEAMINES AND USES THEREOF” (Kures, Inc., priority 2020, published 2023)", "experiment": "Brain pharmacokinetics of tianeptine and its 5-carbon metabolite (7i) in mice", "description": "Experimental Protocol for PK Studies. […] Brain samples were collected from three mice at 0.08, 0.25, 0.5, 1, 2, 4, 8 and 24 h, homogenized using ice-cold phosphate buffer saline (pH 7.4), and stored below -70° C. until analysis. Total homogenate volume was three times the tissue weight. All samples were processed for analysis by protein precipitation using acetonitrile (ACN) and analyzed with a fit-for-purpose LC/MS/MS method (LLOQ - 1.01 ng/mL in brain). Pharmacokinetic parameters were calculated using the non-compartmental analysis tool of Phoenix WinNonlin® (Version 6.3).", "key": {"[1]": {"details": "C57BL/6 mice, single injection of tianeptine 30 mg/kg i.p."}, "[2]": {"details": "mice, after tianeptine 30 mg/kg i.p., in words"}}}
{"smiles": "CN1c2ccccc2C(NCCCCC(=O)O)c2ccc(Cl)cc2S1(=O)=O.Cl", "note": "(stereo not drawn) [Compound 7i]", "values": [{"measurement": "AUClast", "setting": "[1]", "value": 5963, "unit": "ng·h/g"}, {"measurement": "CL", "setting": "[1]", "value": 78, "unit": "mL/min/kg"}, {"measurement": "Tmax", "setting": "[1]", "value": 0.5, "unit": "h"}, {"measurement": "T½", "setting": "[1]", "value": 2.33, "unit": "h"}, {"measurement": "brain exposure (as measured by AUC) compared to the parent compound (tianeptine)", "setting": "[2]", "value": "greater brain exposure"}, {"measurement": "half-life compared to the parent compound (tianeptine)", "setting": "[2]", "value": "significantly longer half-life"}]}
